From PubChem BioAssay AID2060493 (Molecular Pharmacology Branch, DTP, NCI, 2025)

Tested on: 616215-338-R-J1-PDC tumor spheroids, viability
Assay: Anticancer human tumor 616215-338-R-J1-PDC patient-derived colon adenocarcinoma cell line growth inhibition [GQUAD]
Settings: spheroids with HUVEC and MSC; for IC50: curve of first compound; for viability, T/C: stronger effect = lower value; active means viability on the fitted dose curve at most 10% of control; inactive means the rest
Procedure, shortened: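 Multi-cell-type spheroids of tumor cells with HUVEC and mesenchymal stem cells, treated with drug combinations. Concentrations descend in half-log steps from near clinical Cmax, or from 10 microM where Cmax is unknown; viability read-out.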

[1] = second compound 0.0316 µM, first compound 0.0316 µM
[2] = second compound 0.0316 µM, first compound 0.1 µM
[3] = second compound 0.0316 µM, first compound 0.316 µM
[4] = second compound 0.0316 µM, first compound 1 µM
[5] = second compound 0.0316 µM, first compound 3.16 µM
[6] = second compound 0.0316 µM, first compound 10 µM
[7] = second compound 0.1 µM, first compound 0.0316 µM
[8] = second compound 0.1 µM, first compound 0.1 µM
[9] = second compound 0.1 µM, first compound 0.316 µM
[10] = second compound 0.1 µM, first compound 1 µM
[11] = second compound 0.1 µM, first compound 3.16 µM
[12] = second compound 0.1 µM, first compound 10 µM
[13] = second compound 0.316 µM, first compound 0.0316 µM
[14] = second compound 0.316 µM, first compound 0.1 µM
[15] = second compound 0.316 µM, first compound 0.316 µM
[16] = second compound 0.316 µM, first compound 1 µM
[17] = second compound 0.316 µM, first compound 3.16 µM
[18] = second compound 0.316 µM, first compound 10 µM
[19] = second compound 1 µM, first compound 0.0316 µM
[20] = second compound 1 µM, first compound 0.1 µM
[21] = second compound 1 µM, first compound 0.316 µM
[22] = second compound 1 µM, first compound 1 µM
[23] = second compound 1 µM, first compound 3.16 µM
[24] = second compound 1 µM, first compound 10 µM
[25] = second compound 3.16 µM, first compound 0.0316 µM
[26] = second compound 3.16 µM, first compound 0.1 µM
[27] = second compound 3.16 µM, first compound 0.316 µM
[28] = second compound 3.16 µM, first compound 1 µM
[29] = second compound 3.16 µM, first compound 3.16 µM
[30] = second compound 3.16 µM, first compound 10 µM
[31] = second compound 10 µM, first compound 0.0316 µM
[32] = second compound 10 µM, first compound 0.1 µM
[33] = second compound 10 µM, first compound 0.316 µM
[34] = second compound 10 µM, first compound 1 µM
[35] = second compound 10 µM, first compound 3.16 µM
[36] = second compound 10 µM, first compound 10 µM
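Further: spheroids exposed to agents for 7 days before readout.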
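Wherever viability, T/C is given: percent viability relative to DMSO vehicle control wells taken as 100%.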

C=CC(=O)N1CCN(c2nc(=O)n(-c3c(C)ccnc3C(C)C)c3nc(-c4c(O)cccc4F)c(F)cc23)C(C)C1 (stereo unspecified) + CN(C)c1ccc(Nc2c3ccc(NC(=O)CCN4CCCC4)cc3nc3cc(NC(=O)CCN4CCCC4)ccc23)cc1
> 10 µM: IC50 (second compound 0.0316 µM) | IC50 (second compound 0.1 µM) | IC50 (second compound 0.316 µM) | IC50 (second compound 1 µM) | IC50 (second compound 3.16 µM) | IC50 (second compound 10 µM)
inactive: viability, T/C [1] 96.3% | viability, T/C [2] 104% | viability, T/C [3] 103% | viability, T/C [4] 102% | viability, T/C [5] 94.2% | viability, T/C [6] 72% | viability, T/C [7] 110% | viability, T/C [8] 89.6% | viability, T/C [9] 100% | viability, T/C [10] 98% | viability, T/C [11] 95.4% | viability, T/C [12] 64.8% | viability, T/C [13] 93% | viability, T/C [14] 107% | viability, T/C [15] 94.9% | viability, T/C [16] 103% | viability, T/C [17] 89% | viability, T/C [18] 70.6% | viability, T/C [19] 98.7% | viability, T/C [20] 100% | viability, T/C [21] 102% | viability, T/C [22] 91.9% | viability, T/C [23] 91.6% | viability, T/C [24] 69.1% | viability, T/C [25] 102% | viability, T/C [26] 86.7% | viability, T/C [27] 94.9% | viability, T/C [28] 95% | viability, T/C [29] 80.2% | viability, T/C [30] 63.9% | viability, T/C [31] 98.1% | viability, T/C [32] 85.7% | viability, T/C [33] 86.3% | viability, T/C [34] 86.8% | viability, T/C [35] 70.3% | viability, T/C [36] 55.2%

Cc1cccc(N(C)C(=O)C2C(O)CCN2c2nc(C)cc(C(F)(F)F)c2C#N)c1 (stereo unspecified) + CN(C)c1ccc(Nc2c3ccc(NC(=O)CCN4CCCC4)cc3nc3cc(NC(=O)CCN4CCCC4)ccc23)cc1
inactive: viability, T/C [1] 111% | viability, T/C [2] 97.9% | viability, T/C [3] 103% | viability, T/C [4] 103% | viability, T/C [5] 105% | viability, T/C [6] 109% | viability, T/C [7] 102% | viability, T/C [8] 101% | viability, T/C [9] 108% | viability, T/C [10] 101% | viability, T/C [11] 104% | viability, T/C [12] 96.2% | viability, T/C [13] 104% | viability, T/C [14] 99.5% | viability, T/C [15] 104% | viability, T/C [16] 107% | viability, T/C [17] 114% | viability, T/C [18] 110% | viability, T/C [19] 100% | viability, T/C [20] 99.1% | viability, T/C [21] 106% | viability, T/C [22] 97.8% | viability, T/C [23] 102% | viability, T/C [24] 98.7% | viability, T/C [25] 98.6% | viability, T/C [26] 93.1% | viability, T/C [27] 103% | viability, T/C [28] 102% | viability, T/C [29] 88.2% | viability, T/C [30] 88.9% | viability, T/C [31] 102% | viability, T/C [32] 78.2% | viability, T/C [33] 80.2% | viability, T/C [34] 63.5% | viability, T/C [35] 49% | viability, T/C [36] 36.6%
3.12 µM: IC50 (second compound 10 µM)
> 10 µM: IC50 (second compound 0.0316 µM) | IC50 (second compound 0.1 µM) | IC50 (second compound 0.316 µM) | IC50 (second compound 1 µM) | IC50 (second compound 3.16 µM)

CC(C)(O)C1CCC(Nc2ccc3ncc(-c4cccc(C(F)(F)F)c4)n3n2)CC1 (stereo unspecified) + CN(C)c1ccc(Nc2c3ccc(NC(=O)CCN4CCCC4)cc3nc3cc(NC(=O)CCN4CCCC4)ccc23)cc1
0.585 µM: IC50 (second compound 3.16 µM)
0.634 µM: IC50 (second compound 0.0316 µM)
active: viability, T/C [5] 0.97% | viability, T/C [6] 1.74% | viability, T/C [11] 1.16% | viability, T/C [12] 1.76% | viability, T/C [17] 1.32% | viability, T/C [18] 2.9% | viability, T/C [23] 2.03% | viability, T/C [24] 3.51% | viability, T/C [29] 3.83% | viability, T/C [30] 1.76% | viability, T/C [35] 0.42% | viability, T/C [36] 0.5%
0.711 µM: IC50 (second compound 1 µM)
0.726 µM: IC50 (second compound 0.1 µM)
inactive: viability, T/C [1] 111% | viability, T/C [2] 106% | viability, T/C [3] 101% | viability, T/C [4] 17% | viability, T/C [7] 96.3% | viability, T/C [8] 104% | viability, T/C [9] 94.7% | viability, T/C [10] 32.7% | viability, T/C [13] 106% | viability, T/C [14] 101% | viability, T/C [15] 91.2% | viability, T/C [16] 24.1% | viability, T/C [19] 93.6% | viability, T/C [20] 102% | viability, T/C [21] 103% | viability, T/C [22] 29.2% | viability, T/C [25] 93.1% | viability, T/C [26] 92.8% | viability, T/C [27] 86.3% | viability, T/C [28] 18.4% | viability, T/C [31] 89.9% | viability, T/C [32] 97.8% | viability, T/C [33] 63.8% | viability, T/C [34] 15.6%
0.64 µM: IC50 (second compound 0.316 µM)
0.447 µM: IC50 (second compound 10 µM)
